Results from ChEMBL document CHEMBL4138123, “Design, synthesis and biological evaluation of novel pyrazolochalcones as potential modulators of PI3K/Akt/mTOR pathway and inducers of apoptosis in breast cancer cells” (Eur J Med Chem, 2017).

Assays:
MDA-MB-231 [1] = test: Cytotoxicity against human MDA-MB-231 cells assessed as cell growth at 0.1 uM after 48 hrs by sulforhodamine B assay relative to control; type: functional; conditions: MDA-MB-231, 48 h, read-out: Activity
MOLT-4 [2] = test: Cytotoxicity against human MOLT4 cells assessed as cell growth at 100 uM after 48 hrs by sulforhodamine B assay relative to control; type: functional; conditions: MOLT-4, 48 h, read-out: Activity
COLO 205 = test: Cytotoxicity against human COLO205 cells assessed as cell growth at 0.1 uM after 48 hrs by sulforhodamine B assay relative to control; type: functional; conditions: COLO 205, 48 h, read-out: Activity
HCC 2998 [3] = test: Cytotoxicity against human HCC2998 cells assessed as cell growth at 0.1 uM after 48 hrs by sulforhodamine B assay relative to control; type: functional; conditions: HCC 2998, 48 h, read-out: Activity
MDA-MB-435 = test: Cytotoxicity against human MDA-MB-435 cells assessed as growth inhibition after 48 hrs by sulforhodamine B assay; type: functional; conditions: MDA-MB-435, 48 h
MDA-MB-231 [4] = test: Cytotoxicity against human MDA-MB-231 cells assessed as growth inhibition after 48 hrs by MTT assay; type: functional, cell-based; conditions: MDA-MB-231, 48 h
SK-MEL-5 = test: Cytotoxicity against human SK-MEL-5 cells assessed as cell growth at 10 uM after 48 hrs by sulforhodamine B assay relative to control; type: functional; conditions: SK-MEL-5, 48 h, read-out: Activity
SR = test: Cytotoxicity against human SR cells assessed as cell growth at 1 uM after 48 hrs by sulforhodamine B assay relative to control; type: functional; conditions: read-out: Activity
A549 = test: Cytotoxicity against human A549/ATCC cells assessed as cell growth at 10 uM after 48 hrs by sulforhodamine B assay relative to control; type: functional; conditions: A549, 48 h, read-out: Activity
M14 [5] = test: Cytotoxicity against human M14 cells assessed as cell growth at 100 uM after 48 hrs by sulforhodamine B assay relative to control; type: functional; conditions: M14, 48 h, read-out: Activity
SF-268 [6] = test: Cytotoxicity against human SF268 cells assessed as cell growth at 10 uM after 48 hrs by sulforhodamine B assay relative to control; type: functional; conditions: SF-268, 48 h, read-out: Activity
OVCAR-4 = test: Cytotoxicity against human OVCAR4 cells assessed as cell growth at 10 uM after 48 hrs by sulforhodamine B assay relative to control; type: functional; conditions: OVCAR-4, 48 h, read-out: Activity
OVCAR-5 = test: Cytotoxicity against human OVCAR5 cells assessed as cell growth at 100 uM after 48 hrs by sulforhodamine B assay relative to control; type: functional; conditions: OVCAR-5, 48 h, read-out: Activity
KM12 = test: Cytotoxicity against human KM12 cells assessed as cell growth at 100 uM after 48 hrs by sulforhodamine B assay relative to control; type: functional; conditions: KM12, 48 h, read-out: Activity
HCC 2998 [7] = test: Cytotoxicity against human HCC2998 cells assessed as growth inhibition after 48 hrs by sulforhodamine B assay; type: functional; conditions: HCC 2998, 48 h
Malme-3M = test: Cytotoxicity against human MALME-3M cells assessed as cell growth at 1 uM after 48 hrs by sulforhodamine B assay relative to control; type: functional; conditions: read-out: Activity
SF-268 [8] = test: Cytotoxicity against human SF268 cells assessed as cell growth at 0.1 uM after 48 hrs by sulforhodamine B assay relative to control; type: functional; conditions: SF-268, 48 h, read-out: Activity
OVCAR-8 = test: Cytotoxicity against human OVCAR8 cells assessed as cell growth at 100 uM after 48 hrs by sulforhodamine B assay relative to control; type: functional; conditions: OVCAR-8, 48 h, read-out: Activity
MOLT-4 [9] = test: Cytotoxicity against human MOLT4 cells assessed as cell growth at 10 uM after 48 hrs by sulforhodamine B assay relative to control; type: functional; conditions: MOLT-4, 48 h, read-out: Activity
SW-620 = test: Cytotoxicity against human SW620 cells assessed as growth inhibition after 48 hrs by sulforhodamine B assay; type: functional; conditions: SW-620, 48 h
RXF 393 = test: Cytotoxicity against human RXF393 cells assessed as cell growth at 10 uM after 48 hrs by sulforhodamine B assay relative to control; type: functional; conditions: RXF 393, 48 h, read-out: Activity
NCI-H23 [10] = test: Cytotoxicity against human NCI-H23 cells assessed as cell growth at 1 uM after 48 hrs by sulforhodamine B assay relative to control; type: functional; conditions: NCI-H23, 48 h, read-out: Activity
NCI-H322M = test: Cytotoxicity against human NCI-H322M cells assessed as growth inhibition after 48 hrs by sulforhodamine B assay; type: functional; conditions: for CC50: read-out: LC50 (the source's name)
786-0 = test: Cytotoxicity against human 786-0 cells assessed as cell growth at 100 uM after 48 hrs by sulforhodamine B assay relative to control; type: functional; conditions: 786-0, 48 h, read-out: Activity
M14 [11] = test: Cytotoxicity against human M14 cells assessed as cell growth at 0.1 uM after 48 hrs by sulforhodamine B assay relative to control; type: functional; conditions: M14, 48 h, read-out: Activity
K562 [12] = test: Cytotoxicity against human K562 cells assessed as cell growth at 100 uM after 48 hrs by sulforhodamine B assay relative to control; type: functional; conditions: K562, 48 h, read-out: Activity
NCI-H23 [13] = test: Cytotoxicity against human NCI-H23 cells assessed as cell growth at 100 uM after 48 hrs by sulforhodamine B assay relative to control; type: functional; conditions: NCI-H23, 48 h, read-out: Activity
K562 [14] = test: Cytotoxicity against human K562 cells assessed as cell growth at 1 uM after 48 hrs by sulforhodamine B assay relative to control; type: functional; conditions: K562, 48 h, read-out: Activity
M14 [15] = test: Cytotoxicity against human M14 cells assessed as cell growth at 0.01 uM after 48 hrs by sulforhodamine B assay relative to control; type: functional; conditions: M14, 48 h, read-out: Activity
SK-OV-3 = test: Cytotoxicity against human SKOV3 cells assessed as cell growth at 1 uM after 48 hrs by sulforhodamine B assay relative to control; type: functional; conditions: SK-OV-3, 48 h, read-out: Activity
HCT-15 = test: Cytotoxicity against human HCT15 cells assessed as growth inhibition after 48 hrs by sulforhodamine B assay; type: functional; conditions: HCT-15, 48 h
NCI-H522 = test: Cytotoxicity against human NCI-H522 cells assessed as cell growth at 100 uM after 48 hrs by sulforhodamine B assay relative to control; type: functional; conditions: NCI-H522, 48 h, read-out: Activity
T47D = test: Cytotoxicity against human T47D cells assessed as cell growth at 100 uM after 48 hrs by sulforhodamine B assay relative to control; type: functional; conditions: read-out: Activity
HL-60(TB) = test: Cytotoxicity against human HL-60(TB) cells assessed as cell growth at 10 uM after 48 hrs by sulforhodamine B assay relative to control; type: functional; conditions: HL-60, 48 h, read-out: Activity
SNB-19 = test: Cytotoxicity against human SNB19 cells assessed as cell growth at 1 uM after 48 hrs by sulforhodamine B assay relative to control; type: functional; conditions: SNB-19, 48 h, read-out: Activity
TK-10 = test: Cytotoxicity against human TK10 cells assessed as cell growth at 100 uM after 48 hrs by sulforhodamine B assay relative to control; type: functional; conditions: TK-10, 48 h, read-out: Activity

COc1cc(C(=O)/C=C/c2cc(-c3cc(OC)c(OC)c(OC)c3)n[nH]2)cc(OC)c1OC
growth at 0.1 µM (MDA-MB-231 [1]): 104% | growth at 100 µM (MOLT-4 [2]): -15% | growth at 0.1 µM (COLO 205): 102% | growth at 0.1 µM (HCC 2998 [3]): 101% | LC50 (MDA-MB-435): 5.82 µM | TGI (MDA-MB-435): 2.95 µM | IC50 (MDA-MB-231 [4]): 0.7 µM | growth at 10 µM (SK-MEL-5): -98% | growth at 1 µM (SR): 22% | growth at 10 µM (A549): 6% | growth at 100 µM (M14 [5]): -88% | growth at 10 µM (SF-268 [6]): -45% | growth at 10 µM (OVCAR-4): -100% | growth at 100 µM (OVCAR-5): -72% | growth at 100 µM (KM12): -81% | LC50 (HCC 2998 [7]): 6.31 µM | TGI (HCC 2998 [7]): 3.39 µM | growth at 1 µM (Malme-3M): 89% | growth at 0.1 µM (SF-268 [8]): 99% | growth at 100 µM (OVCAR-8): -99% | growth at 10 µM (MOLT-4 [9]): -4% | LC50 (lethal concentration, 50% net cell kill) (SW-620): 5.97 µM | TGI (SW-620): 3.08 µM | growth at 10 µM (RXF 393): -88% | growth at 1 µM (NCI-H23 [10]): 97% | TGI (NCI-H322M): 4.85 µM | CC50 (NCI-H322M): 14.4 µM | growth at 100 µM (786-0): -98% | growth at 0.1 µM (M14 [11]): 109% | growth at 100 µM (K562 [12]): 1% | growth at 100 µM (NCI-H23 [13]): -62% | growth at 1 µM (K562 [14]): 94% | growth at 0.01 µM (M14 [15]): 96% | growth at 1 µM (SK-OV-3): 96% | LC50 (HCT-15): 7.19 µM | TGI (HCT-15): 3.29 µM | growth at 100 µM (NCI-H522): -98% | growth at 100 µM (T47D): -92% | growth at 10 µM (HL-60(TB)): -28% | growth at 1 µM (SNB-19): 82% | growth at 100 µM (TK-10): -99%

COc1ccc(C(=O)/C=C/c2cc(-c3cc(OC)c(OC)c(OC)c3)n[nH]2)cc1OC
growth at 0.1 µM (MDA-MB-231 [1]): 101% | growth at 100 µM (MOLT-4 [2]): -23% | growth at 0.1 µM (COLO 205): 106% | growth at 0.1 µM (HCC 2998 [3]): 88% | LC50 (MDA-MB-435): 5.52 µM | TGI (MDA-MB-435): 2.71 µM | IC50 (MDA-MB-231 [4]): 0.62 µM | growth at 10 µM (SK-MEL-5): -98% | growth at 1 µM (SR): 11% | growth at 10 µM (A549): -43% | growth at 100 µM (M14 [5]): -68% | growth at 10 µM (SF-268 [6]): -60% | growth at 10 µM (OVCAR-4): 23% | growth at 100 µM (OVCAR-5): -71% | growth at 100 µM (KM12): -75% | LC50 (HCC 2998 [7]): 6.7 µM | TGI (HCC 2998 [7]): 3.78 µM | growth at 1 µM (Malme-3M): 106% | growth at 0.1 µM (SF-268 [8]): 89% | growth at 100 µM (OVCAR-8): -96% | growth at 10 µM (MOLT-4 [9]): -30% | LC50 (lethal concentration, 50% net cell kill) (SW-620): 6.55 µM | TGI (SW-620): 2.99 µM | growth at 10 µM (RXF 393): -98% | growth at 1 µM (NCI-H23 [10]): 93% | TGI (NCI-H322M): 2.9 µM | CC50 (NCI-H322M): 5.51 µM | growth at 100 µM (786-0): -84% | growth at 0.1 µM (M14 [11]): 98% | growth at 100 µM (K562 [12]): -15% | growth at 100 µM (NCI-H23 [13]): -75% | growth at 1 µM (K562 [14]): 75% | growth at 0.01 µM (M14 [15]): 97% | growth at 1 µM (SK-OV-3): 100% | LC50 (HCT-15): 6.4 µM | TGI (HCT-15): 2.85 µM | growth at 100 µM (NCI-H522): -97% | growth at 100 µM (T47D): -46% | growth at 10 µM (HL-60(TB)): -41% | growth at 1 µM (SNB-19): 73% | growth at 100 µM (TK-10): -99%
